Measured values reported in ChEMBL document CHEMBL1201862, “PubChem BioAssay data set” (2004).
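Exposure lasted 48 hours, with cells grown in 96-well plates and compounds tested at five concentrations. GI50 is the concentration that inhibits growth by half.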 The source made the active and inactive calls. No stated cut-off is given here; in the data, active = GI50 up to about 1.1 µM and inactive = higher.

Key:
Assay in all cases: DTP human tumour cell line panel, 48 h
[1] = system: KM12
[2] = system: M14
[3] = system: HL-60
[4] = system: RPMI-8226
[5] = system: OVCAR-3
[6] = system: COLO 205
[7] = system: SW-620
[8] = system: DU-145
[9] = system: MDA-MB-435
[10] = system: MCF7
[11] = system: CAKI-1
[12] = system: SN12C
[13] = system: SF-268
[14] = system: SK-MEL-2
[15] = system: HCC 2998
[16] = system: NCI-H226
[17] = system: HCT-15
[18] = system: UACC-62
[19] = system: K562
[20] = system: PC-3

| Structure (SMILES) | GI50 [1] | GI50 [2] | GI50 [3] | GI50 [4] | GI50 [5] | GI50 [6] | GI50 [7] | GI50 [8] | GI50 [9] | GI50 [10] | GI50 [11] | GI50 [12] | GI50 [13] | GI50 [14] | GI50 [15] | GI50 [16] | GI50 [17] [µM] | GI50 [18] | GI50 [19] | GI50 [20] |
| --- | --- | --- | --- | --- | --- | --- | --- | --- | --- | --- | --- | --- | --- | --- | --- | --- | --- | --- | --- | --- |
| Cc1ccc2c(=O)cc(-c3cccc(F)c3)[nH]c2n1 | 0.022 µM (active) | 0.0361 µM (active) | 0.0212 µM (active) | 0.0397 µM (active) | 0.0201 µM (active) | 0.0224 µM (active) | 0.0251 µM (active) | 0.0504 µM (active) | 0.0111 µM (active) | 0.0334 µM (active) | 0.0498 µM (active) | 0.0746 µM (active) | 0.0678 µM (active) | 0.0398 µM (active) | 0.0586 µM (active) | 0.0336 µM (active) | 0.0381 | 0.0461 µM (active) | 0.0313 µM (active) | 0.0327 µM (active) |
| Cn1c(-c2cccs2)cc(-c2cccs2)c1-c1ccco1 | 6.07 µM (inactive) | 26.4 µM (inactive) | 23.9 µM (inactive) | 31 µM (inactive) | 19.2 µM (inactive) | 27.5 µM (inactive) | 50.5 µM (inactive) | > 100 µM (inactive) | 7.16 µM (inactive) | 0.473 µM (active) | 11.4 µM (inactive) | > 94.6 µM (inactive) | > 66.4 µM (inactive) | 30.3 µM (inactive) | 26.6 µM (inactive) | > 100 µM (inactive) | 14.4 | 30.9 µM (inactive) | 10.2 µM (inactive) | 72.6 µM (inactive) |
| CCOC(=O)/C(C(=S)Nc1ccccc1)=C(/N)N1CCCC1 | 61.1 µM (inactive) | 72.6 µM (inactive) | 49.9 µM (inactive) | > 100 µM (inactive) | > 100 µM (inactive) | > 100 µM (inactive) | 48.9 µM (inactive) | > 100 µM (inactive) | 37.9 µM (inactive) | 54.1 µM (inactive) | > 100 µM (inactive) | > 100 µM (inactive) | > 100 µM (inactive) | > 100 µM (inactive) | > 100 µM (inactive) | > 100 µM (inactive) | > 100 | > 100 µM (inactive) | 37 µM (inactive) | 38.9 µM (inactive) |
